Experimental data: patent US6410533B1, “Antibacterial compounds” (Genzyme Corporation, priority 2000, dated 2002)
In brackets after ≈: the same amount, converted by molar mass. Where two headings read alike, the source gives them in different places.

Key:
[1] = tested on: Staphylococcus aureus bacteria (ATCC 9604 SV); test: Minimal inhibitory concentration (MIC), broth microdilution; format: cell-based; settings: 24 h at 37° C.
Procedure, shortened: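 MIC: broth microdilution per NCCLS in Mueller-Hinton broth; overnight culture adjusted to 0.05 McFarland and diluted twenty-fold into compound-containing broth. IC50: inoculum at 0.1 McFarland diluted two-fold into TB broth with compound, 3–5 h at 37° C. Turbidity at 550 nm; IC50 is the concentration giving 50% growth inhibition.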

[2] = tested on: methicillin-resistant Staphylococcus aureus (ATCC 33591); test: In vivo mouse intraperitoneal infection, mortality and % survivors over 7 days; settings: MRSA ATCC 33591 i.p., ICR mice; for In Vivo, single dose (% of mice rescued): single dose 1 h post inoculation; for In Vivo, double dose (% of mice rescued): 1 and 5 h post inoculation
Procedure, shortened: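 Male ICR mice (20 g, 10 per group) were infected i.p. with 2-3×10^7 CFU/mouse (LD90-100) of MRSA ATCC 33591 in broth with 5% mucin. Compound in 1% cremophore EL/saline was given s.c. at 1 h, or at 1 and 5 h, post-infection. Mortality and % survivors were recorded over 7 days.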

[3] = tested on: Staphylococcus aureus bacteria (ATCC 9604 SV); test: IC50 determination, growth inhibition by turbidity at 550 nm; format: cell-based; settings: Staphylococcus aureus ATCC 9604 SV, turbidity at 550 nm after 3-5 h at 37° C.
Procedure: Minimal inhibitory concentrations (MICs) for Staphylococcus aureus bacteria (ATCC 9604 SV) were determined by broth microdilution methodology following National Committee for Clinical Laboratory Standards. In the MIC determinations, the compounds were incorporated into Mueller-Hinton broth (Becton Dickinson Microbiology systems, Cockeyville, Md.) at a series of concentrations. After the test organism was grown overnight in TB broth, the broths were adjusted to the turbidity equivalent to 0.05 McFarland standard. The suspensions were diluted twenty-fold into the broth containing the compounds. […] In the IC50 determination, the method was modified to allow the rapid growth of the organisms. The inoculum suspensions were adjusted to 0.1 McFarland standard and then diluted two-fold into the wells containing TB broth and the compounds. After three to five hours incubation at 37° C., the turbidity was measured at 550 nm and inhibitory activity was defined as the concentration of antimicrobial agent that inhibits 50% growth of the organism in the microdilution wells.

[4] = Staphylococcus aureus ATCC 9604 SV
[5] = ATCC9604, Staphylococcus aureus ATCC 9604 SV, read-out: MIC

| SMILES | MIC [1, 4] | In Vivo, single dose (% of mice rescued) ([2]; 2 mg/kg s.c.) | In Vivo, single dose (% of mice rescued) ([2]; 20 mg/kg s.c.) | IC50 [3] | MIC [1, 5] | IC50 ([3]; ATCC9604) | In Vivo, double dose (% of mice rescued) ([2]; 2 × 2 mg/kg s.c.) | In Vivo, double dose (% of mice rescued) ([2]; 2 × 20 mg/kg s.c.) |
| --- | --- | --- | --- | --- | --- | --- | --- | --- |
| CC(C)(C)c1cc(NC(=O)Nc2cc(C(F)(F)F)cc(C(F)(F)F)c2)n(-c2ccc(C(F)(F)F)cc2)n1 [Compound 72] | 0.808 µg/mL (≈ 1.5 µM) | 0% @ 2 mg/kg | 0% @ 20 mg/kg | 58 nM |  |  |  |  |
| O=C(Nc1cc(C(F)(F)F)cc(C(F)(F)F)c1)Nc1cc(-c2ccccc2)nn1-c1ccc(C(F)(F)F)cc1 [Compound 76, 1-(3,5-Bis-trifluoromethyl-phenyl)-3-[5-phenyl-2-(4-trifluoromethyl-phenyl)-2H-pyrazol-3-yl]-urea] |  | 0% @ 2 mg/kg | 0% @ 20 mg/kg |  | < 0.838 µg/mL | 54 nM |  |  |
| O=C(Nc1cc(Cl)cc(Cl)c1)Nc1cc(-c2ccccc2)nn1-c1ccc(C(F)(F)F)cc1 [Compound 77] | 12.3 µg/mL (≈ 25 µM) | 0% @ 2 mg/kg | 12.5% @ 20 mg/kg | 81 nM |  |  |  |  |
| O=C(Nc1cc(C(F)(F)F)cc(C(F)(F)F)c1)Nc1cc(-c2cccs2)nn1-c1ccc(C(F)(F)F)cc1 [Compound 83] | 0.847 µg/mL (≈ 1.5 µM) | 0% @ 2 mg/kg | 25% @ 20 mg/kg | 71 nM |  |  |  |  |
| O=C(Nc1cc(Cl)cc(Cl)c1)Nc1cc(-c2cccs2)nn1-c1ccc(C(F)(F)F)cc1 [Compound 84] | 6.22 µg/mL (≈ 12.5 µM) | 0% @ 2 mg/kg | 0% @ 20 mg/kg | 134 nM |  |  |  |  |
| O=C(Nc1cc(C(F)(F)F)cc(C(F)(F)F)c1)Nc1cc(-c2cccnc2)nn1-c1ccc(C(F)(F)F)cc1 [Compound 86] | 1.68 µg/mL (≈ 3 µM) | 0% @ 2 mg/kg | 0% @ 20 mg/kg | 205 nM |  |  |  |  |
| O=C(Nc1cc(C(F)(F)F)cc(C(F)(F)F)c1)Nc1cc(-c2ccncc2)nn1-c1ccc(C(F)(F)F)cc1 [Compound 87] | 1.68 µg/mL (≈ 3 µM) | 25% @ 2 mg/kg | 25% @ 20 mg/kg | 214 nM |  |  | 0% @ 2 × 2 mg/kg | 17% @ 2 × 20 mg/kg |
| O=C(Nc1cc(C(F)(F)F)cc(C(F)(F)F)c1)Nc1cc(CN2CCOCC2)nn1-c1ccc(C(F)(F)F)cc1 [Compound 89] | >29.1 µg/mL | 0% @ 2 mg/kg | 0% @ 20 mg/kg | 216 nM |  |  |  |  |
| O=C(Nc1cc(Cl)cc(Cl)c1)Nc1cc(-c2ccccc2)nn1-c1ccc(Cl)cc1 [Compound 91] | >22.9 µg/mL | 0% @ 2 mg/kg | 0% @ 20 mg/kg | 148 nM |  |  |  |  |
| O=C(Nc1cc(C(F)(F)F)cc(C(F)(F)F)c1)Nc1ccnn1-c1ccc(Br)cc1 [Compound 92, 1-(3,5-Bis-trifluoromethyl-phenyl)-3-[2-(4-bromo-phenyl)-2H-pyrazol-3-yl]-urea] |  | 0% @ 2 mg/kg | 0% @ 20 mg/kg |  | < 0.74 µg/mL | 209 nM |  |  |
| O=C(Nc1cc(Cl)cc(Cl)c1)Nc1ccnn1-c1ccc(Br)cc1 [Compound 93] | <0.639 µg/mL | 0% @ 2 mg/kg | 25% @ 20 mg/kg | 138 nM |  |  |  |  |
